From patent publication US7435834B2, “2-thia-dibenzoazulenes as inhibitors of tumour necrosis factor production and intermediates for the preparation thereof” (GlaxoSmithKline Istrazivacki Center Zagreb D.O.O., priority 2002, dated 2008)

Test system: TNF-α and IL-1 secretion
Test: investigated assays, not specified which (TNF-α/IL-1 secretion in human PBMC and mouse peritoneal macrophages in vitro, LPS-induced TNF-α/IL-1 secretion in mice, writhing assay, LPS-induced shock in mice)
Settings: assays not named; active means: IC50 20 μM or lower (human PBMC), IC50 10 μM or lower (mouse macrophages), 30% or more TNF-α inhibition at 10 mg/kg, analgetic activity as acetylsalicylic acid or better, survival 40% or more at 30 mg/kg
Description: The inhibitory action of the present compounds upon TNF-α and IL-1 secretion was determined by the following in vitro and in vivo experiments:
Determination of TNF-α and IL-1 Secretion in Human Peripheral Blood Mononuclear Cells in vitro
Human peripheral blood mononuclear cells (PBMC) were prepared from heparinized whole blood after separating PBMC on Ficoll-Paque™Plus (Amersham-Pharmacia). […] The IL-1 level was determined in an assay under the same conditions and with the same number of cells and the same concentration of stimuli stimulus by ELISA procedure (R&D Systems). The percentage of inhibition of TNF-α or IL-1 production was calculated by the equation: % inhibition=[1−(TS−NC)/(PC−NC)]*100. […]
In order to obtain peritoneal macrophages, Balb/C mouse strain males, age 8 to 12 weeks, were injected i.p. with 300 μg of zymosan (SIGMA) dissolved in a phosphate buffer (PBS) in a total volume of 0.1 ml/mouse. […] The TNF-α level in the cell supernatant was determined by ELISA procedure (R&D Systems, Biosource). The IL-1 level was determined in an assay identical to the assay for TNF-α by ELISA procedure (R&D Systems). The percentage of inhibition of TNF-α or IL-1 production was calculated by the equation: % inhibition=[1−(TS−NC)/(PC−NC)]*100. […]

For `O=Cc1scc2c1-c1ccccc1Sc1ccccc1-2` [Example 14, 2,8-Dithia-dibenzo[e,h]azulene-1-carbaldehyde], the “activity in investigated assays” value was “activity in at least two investigated assays”.
